Measured values published in patent US5288757A, “Aminosulfonyl urea ACAT inhibitors and a method of lowering blood cholesterol levels therewith” (priority 1993, dated 1994).
Where a name gives a salt, the structure may show the parent alone.

Each compound was assayed on Plasma TC (assay: in vivo screen designated APCC, plasma total cholesterol in rats on high fat, high cholesterol diet). Settings: * dosed at 50 mg/kg; rat; high fat, high cholesterol diet with 0.5% cholic acid; read-out: % Change in Plasma TC Values (mg/dl).
Parameters: species or system male Sprague-Dawley rats
Text: In one in vivo screen designated APCC, male Sprague-Dawley rats (200 to 225 g) were randomly divided into treatment groups and dosed at 4 PM with either vehicle (CMC/Tween) or suspensions of compounds in vehicle. The normal chow diet was then replaced with a high fat, high cholesterol diet with 0.5% cholic acid. The rats consumed this diet ad libitum during the night and were sacrificed at 8 AM to obtain blood samples for cholesterol analysis using standard procedures. Statistical differences between mean cholesterol values for the same vehicle were determined using analysis of variance followed by Fisher's least significant test. Compounds were dosed at 30 mg/kg unless otherwise noted.

First: CC(C)c1cccc(C(C)C)c1NC(=O)NS(=O)(=O)N(C(C)C)C(C)C [Example 1, N-[2,6-bis(1-methylethyl)phenyl]-N'-[[bis(1-methylethyl)amino]sulfonyl]ure]
Second: CC(C)c1cccc(C(C)C)c1NC(=O)NS(=O)(=O)N(Cc1ccccc1)C(C)C [Example 11, N-[2,6-bis(1-methylethyl)phenyl]-N'-[[(1-methylethyl)(phenylmethyl)amino]sulfonyl]urea]
The change in vivo at 50 mg/kg of the first is higher: -59% for the first, -60% for the second.

First: CC(C)c1cccc(C(C)C)c1NC(=O)NS(=O)(=O)NC(c1ccccc1)c1ccccc1 [Example 2, N-[2,6-bis(1-methylethyl)phenyl]-N'-[[(diphenylmethyl)amino]sulfonyl]urea]
Second: CC(C)c1cccc(C(C)C)c1NC(=O)NS(=O)(=O)NCC(c1ccccc1)c1ccccc1 [Example 7, N-[2,6-bis(1-methylethyl)phenyl]-N'-[[(2,2-diphenylethyl)amino]sulfonyl]urea]
The change in vivo at 50 mg/kg of the first is higher: -14% for the first, -20% for the second.

First: CCCCN(CCCC)S(=O)(=O)NC(=O)Nc1c(C(C)C)cccc1C(C)C [Example 4, N-[2,6-bis(1-methylethyl)phenyl]-N'-[(dibutylamino)sulfonyl]urea]
Second: CCCCCCCCN(CCCCCCCC)S(=O)(=O)NC(=O)Nc1c(C(C)C)cccc1C(C)C [Example 12, N-[2,6-bis(1-methylethyl)phenyl]-N'-[(dioctylamino)sulfonyl]urea]
The change in vivo at 50 mg/kg of the first is lower: -66% for the first, -41% for the second.

Going from `CC(C)c1cccc(C(C)C)c1NC(=O)NS(=O)(=O)Nc1c(C(C)C)cccc1C(C)C` [Example 6, N-[2,6-bis(1-methylethyl)phenyl]-N'-[[[2,6-bis(1-methylethyl)phenyl]amino]sulfonyl]urea] to `CC(C)c1cccc(C(C)C)c1NC(=O)NS(=O)(=O)NC1c2ccccc2-c2ccccc21` [Example 10, N-[2,6-bis(1-methylethyl)phenyl]-N'-[(9H-fluoren-9-ylamino)sulfonyl]urea], the change in vivo at 50 mg/kg rises from -54% to -4%.

In the case of `CC(C)c1cccc(C(C)C)c1NC(=O)NS(=O)(=O)N(Cc1ccccc1)Cc1ccccc1` [Example 9, N-[2,6-bis(1-methylethyl)phenyl]-N'-[(bis(phenylmethyl)amino)sulfonyl]urea], the change in vivo at 50 mg/kg is reported as -59%.

Same assay, conditions: Rattus norvegicus, read-out: % Change in Plasma TC Values (mg/dl)

Work on `CCCCN(CCCC)S(=O)(=O)NC(=O)Nc1c(C(C)C)cccc1C(C)C` [Example 43, N-[2,6-bis(1-methylethyl)phenyl]-N'-[(dibutylamino)sulfonyl]urea, monosodium salt] yielded a change in vivo at 30 mg/kg of -68%.

Same assay, conditions: dosed at 30 mg/kg; rat; high fat, high cholesterol diet with 0.5% cholic acid; read-out: % Change in Plasma TC Values (mg/dl)

Going from `CC(C)c1cccc(C(C)C)c1NC(=O)NS(=O)(=O)N(c1ccccc1)c1ccccc1` [Example 3] to `CC(C)c1cccc(C(C)C)c1NS(=O)(=O)NC(=O)N(Cc1ccccc1)Cc1ccccc1` [Example 42, N,-[[[2,6-bis(1-methylethyl)phenyl]amino]sulfonyl]-N,N-bis(phenylmethyl) urea], the change in vivo at 30 mg/kg falls from -37% to -44%.

Going from `CC(C)c1cccc(C(C)C)c1NC(=O)NS(=O)(=O)N1CCC(c2ccccc2)CC1` [Example 13, N-[2,6-bis(1-methylethyl)phenyl]-N'-[(4-phenyl-1-piperidinyl)sulfonyl]urea] to `CC(C)c1cccc(C(C)C)c1NC(=O)NS(=O)(=O)N1CCCC1` [Example 38, Urea, N-[2,6-bis(1-methylethyl)phenyl]-N'-(1-pyrrolidinylsulfonyl)], the change in vivo at 30 mg/kg rises from -67% to -49%.

Compared with `CCCCCCN(CCCCCC)S(=O)(=O)NC(=O)Nc1c(C(C)C)cccc1C(C)C` [Example 14], `CCCCCN(CCCCC)S(=O)(=O)NC(=O)Nc1c(C(C)C)cccc1C(C)C` [Example 22, N-[2,6-bis(1-methylethyl)phenyl]-N'-[(dipentylamino)sulfonyl]urea] is higher in change in vivo at 30 mg/kg: -77% for the first, -76% for the second.

Compared with `CC(C)c1cccc(C(C)C)c1NC(=O)NS(=O)(=O)N(CCCN(C)C)CCCN(C)C` [Example 15, N-[[bis[3-(dimethylamino)propyl]amino]sulfonyl]-N'-[2,6-bis(1-methylethyl)phenyl]urea], `CCCCN(CC)S(=O)(=O)NC(=O)Nc1c(C(C)C)cccc1C(C)C` [Example 34, N-[2,6-bis(1-methylethyl)phenyl]-N'-[(butylethylamino)sulfonyl]urea] is lower in change in vivo at 30 mg/kg: -30% for the first, -70% for the second.

First: CCCCCCNS(=O)(=O)NC(=O)Nc1c(C(C)C)cccc1C(C)C [Example 16, N-[2,6-bis(1-methylethyl)phenyl]-N'-[(hexylamino)sulfonyl]urea]
Second: CCCCCCCCN(C)S(=O)(=O)NC(=O)Nc1c(C(C)C)cccc1C(C)C [Example 19, N-[2,6-bis(1-methylethyl)phenyl]-N'-[(methyloctylamino)sulfonyl]urea]
The change in vivo at 30 mg/kg of the first is higher: -19% for the first, -59% for the second.

First: CC(C)c1cccc(C(C)C)c1NC(=O)NS(=O)(=O)N(CC1CCCO1)CC1CCCO1 (centres unmarked) [Example 17, N-[2,6-bis(1-methylethyl)phenyl]-N'-[[bis[(tetrahydro-2-furanyl)methyl]amino]sulfonyl]urea]
Second: CC(C)c1cccc(C(C)C)c1NC(=O)NS(=O)(=O)N(C(C)C)C1CCCCC1 [Example 21, N-[2,6-bis(1-methylethyl)phenyl]-N'[[cyclohexyl(1-methylethyl)amino]sulfonyl]urea]
The change in vivo at 30 mg/kg of the first is higher: -53% for the first, -68% for the second.

First: CCN(CC)S(=O)(=O)NC(=O)Nc1c(C(C)C)cccc1C(C)C [Example 18, N-[2,6-bis(1-methylethyl)phenyl]-N'-[(diethylamino)sulfonyl]urea]
Second: C=CCN(CC)S(=O)(=O)NC(=O)Nc1c(C(C)C)cccc1C(C)C [Example 24, N-[2,6-bis(1-methylethyl)phenyl]-N'-[[ethyl(2-propenyl)amino]sulfonyl]urea]
The change in vivo at 30 mg/kg of the first is higher: -19% for the first, -48% for the second.

First: CC(C)c1cccc(C(C)C)c1NC(=O)NS(=O)(=O)N(C)CCc1ccccc1 [Example 20, N-[2,6-bis(1-methylethyl)phenyl]-N'-[[methyl(2-phenylethyl)amino]sulfonyl]urea]
Second: CCCCN(C)S(=O)(=O)NC(=O)Nc1c(C(C)C)cccc1C(C)C [Example 30, N-[2,6-bis(1-methylethyl)phenyl]-N'-[(butylmethylamino)sulfonyl]urea]
The change in vivo at 30 mg/kg of the first is lower: -71% for the first, -56% for the second.

Going from `CC(C)CN(CC(C)C)S(=O)(=O)NC(=O)Nc1c(C(C)C)cccc1C(C)C` [Example 23, N-[2,6-bis(1-methylethyl)phenyl]-N'-[[bis(2-methylpropyl)amino]sulfonyl]urea] to `CC(C)CCN(CCC(C)C)S(=O)(=O)NC(=O)Nc1c(C(C)C)cccc1C(C)C` [Example 25, N-[[bis(3-methylbutyl)amino]sulfonyl]-N'-[2,6-bis(1-methylethyl)phenyl] urea], the change in vivo at 30 mg/kg rises from -75% to -60%.

Going from `CCCCCCCCCCN(CCCCCCCCCC)S(=O)(=O)NC(=O)Nc1c(C(C)C)cccc1C(C)C` [Example 26, N-[2,6-bis(1-methylethyl)phenyl]-N'-[(didecylamino)sulfonyl]urea] to `CCCCCCCCCCCCN(CCCCCCCCCCCC)S(=O)(=O)NC(=O)Nc1c(C(C)C)cccc1C(C)C` [Example 27], the change in vivo at 30 mg/kg rises from -57% to 5%.

First: CC(C)c1cccc(C(C)C)c1NC(=O)NS(=O)(=O)N(C1CCCCC1)C1CCCCC1 [Example 29, N-[2,6-bis(1-methylethyl)phenyl]-N'-[(dicyclohexylamino)sulfonyl]urea]
Second: CC(C)c1cccc(C(C)C)c1NC(=O)NS(=O)(=O)N1CCCCC1 [Example 39, Urea, N-[2,6 bis(1-methylethyl)phenyl]-N'-(1-piperidinylsulfonyl)]
The change in vivo at 30 mg/kg of the first is lower: -64% for the first, -13% for the second.

First: CCCCCCCCCCCCCCCCCCN(C)S(=O)(=O)NC(=O)Nc1c(C(C)C)cccc1C(C)C [Example 31, N-[2,6-bis(1-methylethyl)phenyl]-N'-[(methyloctadecylamino)sulfonyl]urea]
Second: CCCCCCCCCCCCCCN(C)S(=O)(=O)NC(=O)Nc1c(C(C)C)cccc1C(C)C [Example 37, N-[2,6-bis(l-methylethyl)phenyl]-N'-[(methyltetradecylamino)sulfonyl]urea]
The change in vivo at 30 mg/kg of the first is higher: -60% for the first, -65% for the second.

Going from `CC(C)NS(=O)(=O)NC(=O)Nc1c(C(C)C)cccc1C(C)C` [Example 32, N-[2,6-bis(1-methylethyl)phenyl]-N'-[[(1-methylethyl)amino]sulfonyl]urea] to `CC(C)c1cccc(C(C)C)c1NC(=O)NS(=O)(=O)N(C(C)C)C(C)(C)C` [Example 35, N-[2,6-bis(1-methylethyl)phenyl]-N'-[[(1,1-dimethylethyl)(1-methylethyl)amino]sulfonyl]urea], the change in vivo at 30 mg/kg falls from -17% to -71%.

Going from `C=CCN(CC=C)S(=O)(=O)NC(=O)Nc1c(C(C)C)cccc1C(C)C` [Example 33, N-[2,6-bis(1-methylethyl)phenyl]-N'-[(di-2-propenylamino)sulfonyl]urea] to `CCC(C)N(C(C)CC)S(=O)(=O)NC(=O)Nc1c(C(C)C)cccc1C(C)C` (centres unmarked) [Example 36, N-[2,6-bis(1-methylethyl)phenyl]-N'-[[bis(1-methylpropyl)amino]sulfonyl]urea], the change in vivo at 30 mg/kg falls from -67% to -71%.
